How the values were obtained:
Apolipoprotein L1 = Apolipoprotein L1 (Homo sapiens, UniProt O14791); experiment: Inhibition of APOL1 G1 variant in human HEK293-T-REx cells measured by Thallium assay; type: cell-based
[1] = tested on: Trypanosoma brucei brucei; experiment: Antitrypanosomal activity against Trypanosoma brucei brucei assessed as trypanosome lysis using recombinant APOL1 protein G1 variant and measured by Alamar blue based fluoresence assay; type: functional, organism-based

SMILES	IC50 (Apolipoprotein L1)	IC50 [1]
O=C(NC1CNC[C@@H]1O)[C@H]1C[C@H](c2c(-c3ccc(F)cc3)[nH]c3c(F)cc(F)cc32)C1 (stereo partly specified)	> 1000 nM	250 nM
Cn1cnc(CNC(=O)[C@H]2C[C@H](c3c(-c4ccc(F)cc4)[nH]c4c(F)cc(F)cc43)C2)c1	< 250 nM	< 250 nM
O=C([C@H]1C[C@H](c2c(-c3ccc(F)cc3)[nH]c3c(F)cc(F)cc32)C1)N1CC(OCC2CCCO2)C1 (stereo partly specified)	> 1000 nM	> 1000 nM
CN(CCO)C(=O)[C@H]1C[C@H](c2c(-c3ccc(F)cc3)[nH]c3c(F)cc(F)cc32)C1	< 250 nM	< 250 nM
O=C(NC1CCOC1)[C@H]1C[C@H](c2c(-c3ccc(F)cc3)[nH]c3c(F)cc(F)cc32)C1 (stereo partly specified)	> 1000 nM	250 nM
CC(CO)NC(=O)[C@H]1C[C@H](c2c(-c3ccc(F)cc3)[nH]c3c(F)cc(F)cc32)C1 (stereo partly specified)	< 250 nM	< 250 nM
O=C(NCc1ccn[nH]1)[C@H]1C[C@H](c2c(-c3ccc(F)cc3)[nH]c3c(F)cc(F)cc32)C1	0.25 nM	250 nM
O=C([C@H]1C[C@H](c2c(-c3ccc(F)cc3)[nH]c3c(F)cc(F)cc32)C1)N1CC(CO)C1	> 1000 nM	< 250 nM
C[C@@H](O)[C@H](CO)NC(=O)[C@H]1C[C@H](c2c(-c3ccc(F)cc3)[nH]c3c(F)cc(F)cc32)C1	> 1000 nM	250 nM
O=C1C[C@H](NC(=O)[C@H]2C[C@H](c3c(-c4ccc(F)cc4)[nH]c4c(F)cc(F)cc43)C2)C(=O)N1	< 250 nM	< 250 nM
O=C(NCCn1cncn1)[C@H]1C[C@H](c2c(-c3ccc(F)cc3)[nH]c3c(F)cc(F)cc32)C1	< 250 nM	< 250 nM
O=C(NCCCO)[C@H]1C[C@H](c2c(-c3ccc(F)cc3)[nH]c3c(F)cc(F)cc32)C1	0.25 nM	< 250 nM
COC[C@@H]1CCN1C(=O)[C@H]1C[C@H](c2c(-c3ccc(F)cc3)[nH]c3c(F)cc(F)cc32)C1	> 1000 nM	< 250 nM
CCOCC1(CNC(=O)[C@H]2C[C@H](c3c(-c4ccc(F)cc4)[nH]c4c(F)cc(F)cc43)C2)CC1	> 1000 nM	> 1000 nM
C[C@H]1CN(C(=O)[C@H]2C[C@H](c3c(-c4ccc(F)cc4)[nH]c4c(F)cc(F)cc43)C2)CC[C@@H]1O	> 1000 nM	> 1000 nM
Cc1cc(CNC(=O)[C@H]2C[C@H](c3c(-c4ccc(F)cc4)[nH]c4c(F)cc(F)cc43)C2)nn1C	> 1000 nM	250 nM
O=C(N[C@@H]1CC[C@H](O)C1)[C@H]1C[C@H](c2c(-c3ccc(F)cc3)[nH]c3c(F)cc(F)cc32)C1	> 1000 nM	> 1000 nM

SMILES	IC50 (Apolipoprotein L1)	IC50 [1]
CCN(CCO)C(=O)[C@H]1C[C@H](c2c(-c3ccc(F)cc3)[nH]c3c(F)cc(F)cc32)C1	0.25 nM	250 nM
CC(NC(=O)[C@H]1C[C@H](c2c(-c3ccc(F)cc3)[nH]c3c(F)cc(F)cc32)C1)C(N)=O (stereo partly specified)	0.25 nM	250 nM
CCNC(=O)[C@@H]1CCCN1C(=O)[C@H]1C[C@H](c2c(-c3ccc(F)cc3)[nH]c3c(F)cc(F)cc32)C1	> 1000 nM	> 1000 nM
O=C(N[C@H]1CC[C@H]1O)[C@H]1C[C@H](c2c(-c3ccc(F)cc3)[nH]c3c(F)cc(F)cc32)C1	0.25 nM	250 nM
O=C(N[C@@H](CO)C(F)(F)F)[C@H]1C[C@H](c2c(-c3ccc(F)cc3)[nH]c3c(F)cc(F)cc32)C1	0.25 nM	< 250 nM
O=C([C@H]1C[C@H](c2c(-c3ccc(F)cc3)[nH]c3c(F)cc(F)cc32)C1)N1CCC(CO)(CO)CC1	> 1000 nM	> 1000 nM
NC(=O)CNC[C@H]1C[C@@H](c2c(-c3ccc(F)cc3)[nH]c3c(F)cc(F)cc32)C1	< 250 nM	< 250 nM
O=C(N[C@H]1CC[C@H](O)C1)[C@H]1C[C@H](c2c(-c3ccc(F)cc3)[nH]c3c(F)cc(F)cc32)C1	> 1000 nM	> 1000 nM
O=C([C@H]1C[C@H](c2c(-c3ccc(F)cc3)[nH]c3c(F)cc(F)cc32)C1)N1C[C@H]2C[C@@]2(CO)C1	> 1000 nM	> 1000 nM
Cn1cncc1CNC(=O)[C@H]1C[C@H](c2c(-c3ccc(F)cc3)[nH]c3c(F)cc(F)cc32)C1	> 1000 nM	250 nM
O=C([C@H]1C[C@H](c2c(-c3ccc(F)cc3)[nH]c3c(F)cc(F)cc32)C1)N1CCCC(CO)C1 (stereo partly specified)	> 1000 nM	> 1000 nM
Cc1cc(CNC(=O)[C@H]2C[C@H](c3c(-c4ccc(F)cc4)[nH]c4c(F)cc(F)cc43)C2)on1	> 1000 nM	250 nM
O=C1N[C@H](CO)C[C@@H]1NC(=O)[C@H]1C[C@H](c2c(-c3ccc(F)cc3)[nH]c3c(F)cc(F)cc32)C1	> 1000 nM	> 1000 nM
O=C(NC1(CO)CCC1)[C@H]1C[C@H](c2c(-c3ccc(F)cc3)[nH]c3c(F)cc(F)cc32)C1	< 250 nM	< 250 nM
O=C([C@H]1C[C@H](c2c(-c3ccc(F)cc3)[nH]c3c(F)cc(F)cc32)C1)N1CCOC(O)C1 (stereo partly specified)	0.25 nM	< 250 nM
O=C([C@H]1C[C@H](c2c(-c3ccc(F)cc3)[nH]c3c(F)cc(F)cc32)C1)N(CCO)C1CC1	< 250 nM	250 nM

Source: ChEMBL document CHEMBL5052856, “Inhibitors of apol1 and methods of using same” (2021)
